One data set deals with T1, STAT3 (Homo sapiens, UniProt P40763).
T1 construct: Colorectal carcinoma HCT116 cells were co-transfected with a plasmid carrying firefly luciferase, whose expression increases with STAT3 activity; endogenous in cells; host or cells: HCT116 human colorectal carcinoma cells
The data set is described as follows: dual luciferase assay for STAT3 inhibitory activity in transfected HCT116 cells. The format is cell-based. The conditions noted are these: HCT116 cells transfected with STAT3-dependent firefly luciferase; 12 hrs or 24 hrs; read-out: concentration inhibiting 50% of STAT3 activity. How it is done: A dual luciferase assay was performed to determine whether the oxadiazole urea compound of the present invention has inhibitory activity against STAT3.
Colorectal carcinoma HCT116 cells were co-transfected with a plasmid carrying firefly luciferase, whose expression increases with STAT3 activity, and another plasmid carrying renilla luciferase, which is expressed independently of STAT3 activity. The transfected HCT116 cells were detached using 0.05% trypsin EDTA and seeded onto a 96-well test plate at a density of 1×10^4 cells per well. Cells were cultured in an incubator at 37[…] under 5% CO2 for 3 hrs, and then incubated with DMSO (1%) alone as a control and with the oxadiazole urea compound (dissolved in DMSO) at various concentrations (diluted 1/100).
After 12 hrs or 24 hrs, STAT activity was assayed by adding two different substrates for firefly luciferase and renilla luciferase, beetle luciferin and coelenterazine, to the medium. The luminescence intensity by substrate degradation was measured using a luminometer (Wallac 1420). The measured firefly luciferase activity reflected STAT3 activity in a proportional manner. Renilla luciferase was used to calibrate non-specific cytotoxicity, occurring in each test group, and internal deviation.

For data set [1], the system named is MDA-MB-468 breast cancer cells. The data set can be described thus: WST-1 growth inhibition assay, MDA-MB-468. The data set is classed as cell-based. The conditions noted are these: Homo sapiens, MDA-MB-468 cells, 24 hrs. How it is done: (§1) The oxadiazole urea compound of the present invention was estimated for growth inhibitory activity against other human cancer cell lines in a WST-1 assay.
(§2) Human cancer cell lines were cultured in 10% fetal bovine serum (FBS)-containing medium at 37[…] under 5% CO2, and detached using 0.05% trypsin-EDTA. Cells were seeded onto a 96-well plate at a density of 5×10^3 cells per well (for MDA-MB-231 and MDA-MB-468 breast cancer cells) or at a density of 7×10^3 cells per well (for colorectal carcinoma HCT116 and colon cancer SW620 cells).
(§3) Then, cells were cultured in 10% FBS containing medium in an incubator at 37[…] under 5% CO2. After 24 hrs, the medium was exchanged with a medium containing 0.1% DMSO (as a control), or with media containing the oxadiazole urea compound at various concentrations (the compound dissolved in DMSO was diluted in medium), and cells were further cultured for 24 hrs. 10 μl of WST-1 Reagent (Roche) was added to each well, and the plate was incubated for 2 hrs. Absorbance was measured at 450 nm using an ELISA reader (Bio-Rad).

For another data set, the system named is colon cancer SW620 cells. The data set is described as follows: WST-1 growth inhibition assay, SW620. The format is cell-based. The conditions noted are these: Homo sapiens, SW-620, 24 hrs. How it is done:
as §1, §2, §3

Another data set in a line: solubility in solvents. The data set is classed as physicochemical.
A further data set deals with SD rats. The data set is described as follows: acute toxicity test on oral application in rats. The data set is classed as in vivo. The settings on record: single oral dose of 1 g/kg/ml. The method, then: An acute toxicity test was conducted with 6-week-old specific pathogen-free (SPF) SD rats. The present compound was suspended in injectable distilled water, and orally administered to two SD rats per group at a single dose of 1 g/kg/ml. […] After autopsy, abnormalities of abdominal and thoracic organs were visually observed.

The test system of data set [2] is colorectal carcinoma HCT116 cells. The data set can be described thus: WST-1 growth inhibition assay, HCT116. The settings on record: Homo sapiens, HCT-116, 24 hrs. The format is cell-based. The method, then: as §1, §2, §3
In data set [3] the test system is MDA-MB-231 breast cancer cells. The data set can be described thus: WST-1 growth inhibition assay, MDA-MB-231. The format is cell-based, human. The settings on record: MDA-MB-231 cells, 24 hrs. The method, then: as §1, §2, §3

These results are taken from US7799811B2, “Agent for prevention and treatment of cancer comprising oxadiazole urea compound obstructing activity of stat” (Korea Research Institute of Bioscience and Biotechnology, priority 2006, dated 2010).

Molecules are shown by their SMILES.

T1 sequence (P40763 whole entry): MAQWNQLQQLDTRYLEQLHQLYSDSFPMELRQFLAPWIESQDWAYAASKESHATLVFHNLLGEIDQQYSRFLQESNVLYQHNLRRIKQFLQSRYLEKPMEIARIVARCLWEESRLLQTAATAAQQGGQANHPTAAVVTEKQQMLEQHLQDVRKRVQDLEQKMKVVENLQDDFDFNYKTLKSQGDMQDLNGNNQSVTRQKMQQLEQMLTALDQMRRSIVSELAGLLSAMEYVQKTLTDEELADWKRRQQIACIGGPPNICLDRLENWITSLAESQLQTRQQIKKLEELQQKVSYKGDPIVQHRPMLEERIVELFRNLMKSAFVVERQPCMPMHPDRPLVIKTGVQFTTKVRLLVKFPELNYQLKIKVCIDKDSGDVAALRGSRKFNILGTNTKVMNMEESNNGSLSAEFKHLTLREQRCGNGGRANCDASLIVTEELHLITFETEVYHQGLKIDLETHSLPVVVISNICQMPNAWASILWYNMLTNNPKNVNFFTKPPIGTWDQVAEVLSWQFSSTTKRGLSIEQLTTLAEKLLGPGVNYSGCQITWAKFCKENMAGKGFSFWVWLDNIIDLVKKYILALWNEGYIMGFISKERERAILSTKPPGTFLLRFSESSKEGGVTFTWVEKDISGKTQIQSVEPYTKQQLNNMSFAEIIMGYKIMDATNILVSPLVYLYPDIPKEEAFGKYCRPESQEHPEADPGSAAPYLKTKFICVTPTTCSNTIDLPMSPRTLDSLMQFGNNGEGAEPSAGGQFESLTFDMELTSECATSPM

For the compound `O=C(Nc1ccc(C(F)(F)F)cc1)Nc1nonc1-c1ccc(Cl)cc1` [compound of Chemical Formula 1], on STAT3, the IC50 is 2.5 to 3 µM. Further, the GI50 in data set [1] turned out to be 40 µM; in the data set with colon cancer SW620 cells, 70 µM; in data set [2], 15 µM. The “solubility in a nonpolar solvent” value in “solubility in solvents” (nonpolar solvent, such as hexane) was “not dissolved”. In addition, the “solubility in a polar solvent” value in the data set “solubility in solvents” (polar solvent, such as DMSO) is listed as “well dissolved”. Besides, in the data set on SD rats, the clinical symptoms result was “no special clinical symptoms”. Further, the “50% growth inhibition concentration” value in data set [3] is not below 100 μm.
